Laboratory results as given in US12252524B2, “GIP/GLP1 co-agonist compounds” (Eli Lilly and Company, priority 2018, dated 2025).
Numbered stars: 1 amine (or outer) side, 2 acyl side, 3 side chain; on linkers, the order of the positions; unused ones are H or OH. Square brackets hold non-standard residues; d marks the D form. Side chains are listed from the residue outwards. Peptide text beside a SMILES is read from it. * marks the point of attachment. C20 diacid = O=C(O)CCCCCCCCCCCCCCCCCCC(=O)*; γGlu = O=C(O)[C@H](CCC(=O)[*:2])N[*:1]; αMeY = C[C@](N)(Cc1ccc(O)cc1)C(=O)O; αMeL = CC(C)C[C@](C)(N)C(=O)O; Orn = NCCC[C@H](N)C(=O)O; Dap = NC[C@H](N)C(=O)O; AEEA = NCCOCCOCC(=O)O; Aib = CC(C)(N)C(=O)O

Assays:
[1] = target: human GLP-1 receptor (GLP-1R) (Homo sapiens, UniProt P43220); test: cAMP pharmacological functional assay in presence of casein, hGLP-1R; assay type: cell-based; settings: HEK293 cells expressing hGLP-1R, 0.1% Casein, geometric mean; read-out: hGLP1R cAMP Rel EC50 nM (SEM, n)
[2] = target: T1, gastric inhibitory peptide receptor (GIPR) (Homo sapiens, UniProt P48546); test: cAMP pharmacological functional assay in presence of casein, hGIPR; assay type: cell-based; settings: HEK293 cells expressing hGIPR, 0.1% Casein, geometric mean; read-out: hGIPR cAMP Rel EC50 nM (SEM, n)
T1 sequence (P48546 22-466): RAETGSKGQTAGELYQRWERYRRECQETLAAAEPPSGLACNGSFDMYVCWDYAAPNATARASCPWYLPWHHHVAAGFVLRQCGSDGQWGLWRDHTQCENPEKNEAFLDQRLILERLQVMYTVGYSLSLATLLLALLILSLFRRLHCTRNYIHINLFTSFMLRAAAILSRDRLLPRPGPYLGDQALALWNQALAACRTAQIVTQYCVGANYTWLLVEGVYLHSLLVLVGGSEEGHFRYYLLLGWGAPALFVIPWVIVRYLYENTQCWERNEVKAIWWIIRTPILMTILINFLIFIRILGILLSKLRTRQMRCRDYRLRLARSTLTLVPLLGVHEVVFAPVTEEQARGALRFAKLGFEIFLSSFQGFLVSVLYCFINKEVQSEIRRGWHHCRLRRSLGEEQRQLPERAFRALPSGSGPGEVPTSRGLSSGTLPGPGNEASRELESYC

[3] = target: T2, human GLP-1R (Homo sapiens, UniProt P43220); test: GLP-1R CHO cell β-arrestin recruitment assay; assay type: cell-based; set-up: host or cells: CHO-K1 PathHunter cells, assay-ready frozen; settings: for EC50: CHO-K1 cells, PathHunter β-arrestin-2 recruitment, 0.1% casein, read-out: hGLP1R B-Arrestin2 Rel EC50 uM (SEM, n); for hGLP1R B-Arrestin2 % Top: normalized to GLP-1 maximum control
Summary of the method: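 PathHunter CHO-K1 cells with ProLink-tagged human GLP-1R and enzyme-acceptor-tagged β-arrestin-2 treated with serially diluted peptides in assay buffer containing 0.1% hydrolyzed casein, 90 min at 37 °C.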

[4] = target: T2, human GLP-1R; test: GLP-1R HEK293 cell membrane [35S]GTPγS binding assay; assay type: biochemical; set-up: expressed in transfected cells; host or cells: HEK293 cells expressing human GLP-1R; membranes; settings: HEK293 cell membranes expressing human GLP-1R, [35S]GTPγS binding; read-out: hGLP1R GTPgS Rel EC50 nM (SEM, n)
Summary of the method: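 Membranes from HEK293 cells expressing the receptor incubated with peptide and […] [35S]GTPγS in HEPES pH 7.4 buffer with NaCl, MgCl2, saponin and BSA, 30 min at room temperature. Gαs-bound label captured by anti-Gαs antibody/SPA beads and counted; EC50 from four-parameter logistic fit.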

T2 sequence (P43220 24-463): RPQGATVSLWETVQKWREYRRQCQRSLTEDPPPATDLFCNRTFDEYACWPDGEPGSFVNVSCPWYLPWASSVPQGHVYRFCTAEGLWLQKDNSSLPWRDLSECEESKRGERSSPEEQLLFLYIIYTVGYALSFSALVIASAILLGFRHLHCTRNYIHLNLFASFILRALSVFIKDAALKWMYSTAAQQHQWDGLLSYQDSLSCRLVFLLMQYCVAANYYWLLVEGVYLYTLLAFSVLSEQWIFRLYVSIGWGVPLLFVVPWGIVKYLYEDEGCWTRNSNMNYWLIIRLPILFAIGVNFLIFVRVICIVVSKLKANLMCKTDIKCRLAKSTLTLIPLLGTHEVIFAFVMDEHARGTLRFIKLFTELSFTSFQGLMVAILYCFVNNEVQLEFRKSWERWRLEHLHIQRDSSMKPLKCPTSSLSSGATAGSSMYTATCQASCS
Chain of human GLP-1 receptor (GLP-1R) (P43220 24-463): as above

| Structure (SMILES) | EC50 [1] [nM] | EC50 [2] [nM] | EC50 [3] [µM] | hGLP1R B-Arrestin2 % Top [3] [%] | EC50 [4] [nM] |
| --- | --- | --- | --- | --- | --- |
| CC[C@H](C)[C@H](NC(=O)[C@H](CC(C)C)NC(=O)[C@H](Cc1ccc(O)cc1)NC(=O)[C@H](CCC(=O)O)NC(=O)[C@@H](NC(=O)[C@H](Cc1ccccc1)NC(=O)[C@H](CCC(=O)O)NC(=O)C(C)(C)NC(=O)[C@H](CCC(N)=O)NC(=O)[C@H](C)NC(=O)[C@H](CCCCNC(=O)COCCOCCNC(=O)COCCOCCNC(=O)CC[C@H](NC(=O)CCCCCCCCCCCCCCCCCCC(=O)O)C(=O)O)NC(=O)[C@H](CN)NC(=O)[C@H](CC(=O)O)NC(=O)[C@H](CC(C)C)NC(=O)[C@](C)(CC(C)C)NC(=O)[C@@H](NC(=O)[C@H](CO)NC(=O)[C@H](Cc1ccc(O)cc1)NC(=O)[C@H](CC(=O)O)NC(=O)[C@H](CO)NC(=O)[C@@H](NC(=O)[C@H](Cc1ccccc1)NC(=O)[C@@H](NC(=O)CNC(=O)[C@H](CCC(=O)O)NC(=O)C(C)(C)NC(=O)[C@H](N)Cc1ccc(O)cc1)[C@@H](C)O)[C@@H](C)O)[C@@H](C)CC)[C@@H](C)CC)C(=O)N[C@@H](C)C(=O)NCC(=O)NCC(=O)N1CCC[C@H]1C(=O)N[C@@H](CO)C(=O)N[C@@H](CO)C(=O)NCC(=O)N[C@@H](C)C(=O)N1CCC[C@H]1C(=O)N1CCC[C@H]1C(=O)N1CCC[C@H]1C(=O)N[C@@H](CO)C(N)=O [Example 351] (H-[dY][Aib]EGTFTSDYSI[αMeL]LD[Dap]K([AEEA-AEEA-γGlu-C20 diacid])AQ[Aib]EFIEYLIAGGPSSGAPPPS-NH2) | 0.149 | 0.298 | 0.0196 | 23.5 | 0.563 |
| CC[C@H](C)[C@H](NC(=O)[C@H](CC(C)C)NC(=O)[C@H](Cc1ccc(O)cc1)NC(=O)[C@@H](CCC(=O)O)NC(=O)[C@@H](NC(=O)[C@H](Cc1ccccc1)NC(=O)[C@H](CCC(=O)O)NC(=O)C(C)(C)NC(=O)[C@H](CCC(N)=O)NC(=O)[C@H](C)NC(=O)[C@H](CCCCNC(=O)COCCOCCNC(=O)COCCOCCNC(=O)CC[C@H](NC(=O)CCCCCCCCCCCCCCCCCCC(=O)O)C(=O)O)NC(=O)[C@H](CCCCN)NC(=O)[C@H](CC(=O)O)NC(=O)[C@H](CC(C)C)NC(=O)[C@](C)(CC(C)C)NC(=O)[C@@H](NC(=O)[C@H](CO)NC(=O)[C@H](Cc1ccc(O)cc1)NC(=O)[C@H](CC(=O)O)NC(=O)[C@H](CO)NC(=O)[C@@H](NC(=O)[C@H](Cc1ccccc1)NC(=O)[C@@H](NC(=O)CNC(=O)[C@H](CCC(=O)O)NC(=O)C(C)(C)NC(=O)[C@H](N)Cc1ccc(O)cc1)[C@@H](C)O)[C@@H](C)O)[C@@H](C)CC)[C@@H](C)CC)C(=O)N[C@@H](CCC(=O)O)C(=O)NCC(=O)NCC(=O)N1CCC[C@H]1C(=O)N[C@@H](CO)C(=O)N[C@@H](CO)C(=O)NCC(=O)N[C@@H](C)C(=O)N1CCC[C@H]1C(=O)N1CCC[C@H]1C(=O)N1CCC[C@H]1C(=O)N[C@@H](CO)C(N)=O [Example 353] (H-[dY][Aib]EGTFTSDYSI[αMeL]LDKK([AEEA-AEEA-γGlu-C20 diacid])AQ[Aib]EFI[dE]YLIEGGPSSGAPPPS-NH2) | 1.09 | 0.497 | 0.559 | 23.0 | 1.96 |
| CC[C@H](C)[C@H](NC(=O)[C@H](CC(C)C)NC(=O)[C@H](Cc1ccc(O)cc1)NC(=O)[C@@H](CCC(=O)O)NC(=O)[C@@H](NC(=O)[C@H](Cc1ccccc1)NC(=O)[C@H](CCC(=O)O)NC(=O)C(C)(C)NC(=O)[C@H](CCC(N)=O)NC(=O)[C@H](C)NC(=O)[C@H](CCCCNC(=O)COCCOCCNC(=O)COCCOCCNC(=O)CC[C@H](NC(=O)CCCCCCCCCCCCCCCCCCC(=O)O)C(=O)O)NC(=O)[C@H](CCCN)NC(=O)[C@H](CC(=O)O)NC(=O)[C@H](CC(C)C)NC(=O)[C@](C)(CC(C)C)NC(=O)[C@@H](NC(=O)[C@H](CO)NC(=O)[C@H](Cc1ccc(O)cc1)NC(=O)[C@H](CC(=O)O)NC(=O)[C@H](CO)NC(=O)[C@@H](NC(=O)[C@H](Cc1ccccc1)NC(=O)[C@@H](NC(=O)CNC(=O)[C@H](CCC(=O)O)NC(=O)C(C)(C)NC(=O)[C@H](N)Cc1ccc(O)cc1)[C@@H](C)O)[C@@H](C)O)[C@@H](C)CC)[C@@H](C)CC)C(=O)N[C@@H](CCC(=O)O)C(=O)NCC(=O)NCC(=O)N1CCC[C@H]1C(=O)N[C@@H](CO)C(=O)N[C@@H](CO)C(=O)NCC(=O)N[C@@H](C)C(=O)N1CCC[C@H]1C(=O)N1CCC[C@H]1C(=O)N1CCC[C@H]1C(=O)N[C@@H](CO)C(N)=O [Example 355] (H-[dY][Aib]EGTFTSDYSI[αMeL]LD[Orn]K([AEEA-AEEA-γGlu-C20 diacid])AQ[Aib]EFI[dE]YLIEGGPSSGAPPPS-NH2) | 0.896 | 0.685 | 0.363 | 18.3 | 1.76 |
| CC[C@H](C)[C@H](NC(=O)[C@H](CC(C)C)NC(=O)[C@](C)(Cc1ccc(O)cc1)NC(=O)[C@H](CCC(=O)O)NC(=O)[C@@H](NC(=O)[C@H](Cc1ccccc1)NC(=O)[C@H](C)NC(=O)C(C)(C)NC(=O)[C@H](CCC(N)=O)NC(=O)[C@H](C)NC(=O)[C@H](CCCCNC(=O)COCCOCCNC(=O)COCCOCCNC(=O)CC[C@H](NC(=O)CCCCCCCCCCCCCCCCCCC(=O)O)C(=O)O)NC(=O)[C@H](CCCCN)NC(=O)[C@H](CC(=O)O)NC(=O)[C@H](CC(C)C)NC(=O)[C@](C)(CC(C)C)NC(=O)[C@@H](NC(=O)[C@H](CO)NC(=O)[C@H](Cc1ccc(O)cc1)NC(=O)[C@H](CC(=O)O)NC(=O)[C@H](CO)NC(=O)[C@@H](NC(=O)[C@H](Cc1ccccc1)NC(=O)[C@@H](NC(=O)CNC(=O)[C@H](CCC(=O)O)NC(=O)C(C)(C)NC(=O)[C@H](N)Cc1ccc(O)cc1)[C@@H](C)O)[C@@H](C)O)[C@@H](C)CC)[C@@H](C)CC)C(=O)N[C@@H](C)C(=O)NCC(=O)NCC(=O)N1CCC[C@H]1C(=O)N[C@@H](CO)C(=O)N[C@@H](CO)C(=O)NCC(=O)N[C@@H](C)C(=O)N1CCC[C@H]1C(=O)N1CCC[C@H]1C(=O)N1CCC[C@H]1C(=O)N[C@@H](CO)C(N)=O [Example 365] (H-[dY][Aib]EGTFTSDYSI[αMeL]LDKK([AEEA-AEEA-γGlu-C20 diacid])AQ[Aib]AFIE[αMeY]LIAGGPSSGAPPPS-NH2) | 0.175 | 0.0678 | 0.00703 | 20.8 | 0.464 |
| CC[C@H](C)[C@H](NC(=O)[C@H](CC(C)C)NC(=O)[C@](C)(Cc1ccc(O)cc1)NC(=O)[C@H](CCC(=O)O)NC(=O)[C@@H](NC(=O)[C@H](Cc1ccccc1)NC(=O)[C@H](C)NC(=O)C(C)(C)NC(=O)[C@H](CCC(N)=O)NC(=O)[C@H](C)NC(=O)[C@H](CCCCNC(=O)COCCOCCNC(=O)COCCOCCNC(=O)CC[C@H](NC(=O)CCCCCCCCCCCCCCCCCCC(=O)O)C(=O)O)NC(=O)[C@H](CCCN)NC(=O)[C@H](CC(=O)O)NC(=O)[C@H](CC(C)C)NC(=O)[C@](C)(CC(C)C)NC(=O)[C@@H](NC(=O)[C@H](CO)NC(=O)[C@H](Cc1ccc(O)cc1)NC(=O)[C@H](CC(=O)O)NC(=O)[C@H](CO)NC(=O)[C@@H](NC(=O)[C@H](Cc1ccccc1)NC(=O)[C@@H](NC(=O)CNC(=O)[C@H](CCC(=O)O)NC(=O)C(C)(C)NC(=O)[C@H](N)Cc1ccc(O)cc1)[C@@H](C)O)[C@@H](C)O)[C@@H](C)CC)[C@@H](C)CC)C(=O)N[C@@H](C)C(=O)NCC(=O)NCC(=O)N1CCC[C@H]1C(=O)N[C@@H](CO)C(=O)N[C@@H](CO)C(=O)NCC(=O)N[C@@H](C)C(=O)N1CCC[C@H]1C(=O)N1CCC[C@H]1C(=O)N1CCC[C@H]1C(=O)N[C@@H](CO)C(N)=O [Example 366] (H-[dY][Aib]EGTFTSDYSI[αMeL]LD[Orn]K([AEEA-AEEA-γGlu-C20 diacid])AQ[Aib]AFIE[αMeY]LIAGGPSSGAPPPS-NH2) | 0.366 | 0.0889 | 0.00557 | 21.2 | 0.409 |
